By Ki is commonly meant a dissociation constant, usually derived from enzyme kinetics or from competition with a known ligand. Usually EC50 stands for the concentration that produces a half-maximal response. In general, CC50 refers to the concentration at which the toxic effect on the cells reaches its halfway point. What is called IC50 is the point on the concentration scale where inhibition reaches its midpoint.

SMILES strings stand for the structures. Activity calls are given as the source filed them.

In test [1] the target is ALK tyrosine kinase receptor (Homo sapiens, UniProt Q9UM73). The format is functional.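 Also: ALK tested as one member of a kinase panel screen.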
In test [2] the target is Mitogen-activated protein kinase kinase kinase kinase 2 (Homo sapiens, UniProt Q12851). The format is functional.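 Also: measured as one member of a kinome-wide kinase panel, with MAP4K2 as the panel entry.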
Chain of Mitogen-activated protein kinase kinase kinase kinase 2 (Q12851 whole entry): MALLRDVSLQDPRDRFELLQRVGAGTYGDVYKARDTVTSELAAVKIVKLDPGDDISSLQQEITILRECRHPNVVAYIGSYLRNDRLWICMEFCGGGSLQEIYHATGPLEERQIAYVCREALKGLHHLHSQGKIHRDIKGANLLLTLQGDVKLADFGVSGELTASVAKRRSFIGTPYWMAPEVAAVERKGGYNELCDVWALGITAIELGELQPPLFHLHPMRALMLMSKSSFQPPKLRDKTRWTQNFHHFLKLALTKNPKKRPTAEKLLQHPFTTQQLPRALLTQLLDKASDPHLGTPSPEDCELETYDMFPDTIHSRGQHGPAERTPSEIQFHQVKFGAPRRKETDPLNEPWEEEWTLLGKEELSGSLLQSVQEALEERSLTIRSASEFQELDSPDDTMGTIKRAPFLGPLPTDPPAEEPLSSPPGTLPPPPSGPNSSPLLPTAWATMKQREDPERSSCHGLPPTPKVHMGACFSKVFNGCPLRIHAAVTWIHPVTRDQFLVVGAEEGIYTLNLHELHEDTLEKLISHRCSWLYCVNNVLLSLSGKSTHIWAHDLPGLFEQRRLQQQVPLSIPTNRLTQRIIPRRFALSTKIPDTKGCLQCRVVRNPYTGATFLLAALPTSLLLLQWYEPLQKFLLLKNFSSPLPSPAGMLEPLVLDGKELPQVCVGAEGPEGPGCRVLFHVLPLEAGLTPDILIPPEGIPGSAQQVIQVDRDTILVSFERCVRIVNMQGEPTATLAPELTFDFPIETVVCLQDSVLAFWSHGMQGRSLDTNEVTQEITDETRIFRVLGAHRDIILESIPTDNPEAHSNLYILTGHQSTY
For test [3], the target named is Cyclin-dependent kinase 8 (Homo sapiens, UniProt P49336). Nature of the test: Navigating the Kinome. Panel member name: CDK8. Type of test: functional.
Chain of Cyclin-dependent kinase 8 (P49336 whole entry): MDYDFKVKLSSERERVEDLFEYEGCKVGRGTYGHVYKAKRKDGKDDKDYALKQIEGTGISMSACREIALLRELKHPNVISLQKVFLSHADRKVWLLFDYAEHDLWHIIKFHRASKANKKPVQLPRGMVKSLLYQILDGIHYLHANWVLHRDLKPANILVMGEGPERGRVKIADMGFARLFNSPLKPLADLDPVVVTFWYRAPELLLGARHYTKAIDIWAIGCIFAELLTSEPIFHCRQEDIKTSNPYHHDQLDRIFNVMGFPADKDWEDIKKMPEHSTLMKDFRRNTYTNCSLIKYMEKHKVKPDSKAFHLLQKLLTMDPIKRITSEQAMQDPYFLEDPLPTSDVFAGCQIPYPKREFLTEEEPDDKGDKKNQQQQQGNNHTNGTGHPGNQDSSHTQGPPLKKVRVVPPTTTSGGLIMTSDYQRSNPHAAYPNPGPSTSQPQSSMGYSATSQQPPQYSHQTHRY
Test [4] concerns the target Cyclin-dependent kinase 9 (Homo sapiens, UniProt P50750). Type of test: functional.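 Also: value from the CDK9 entry of a kinome-spanning kinase panel.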
The target in test [5] is Dual specificity mitogen-activated protein kinase kinase 2 (Homo sapiens, UniProt P36507). Nature of the test: Navigating the Kinome. Panel member name: MAP2K2. Type of test: functional.
Chain of Dual specificity mitogen-activated protein kinase kinase 2 (P36507 whole entry): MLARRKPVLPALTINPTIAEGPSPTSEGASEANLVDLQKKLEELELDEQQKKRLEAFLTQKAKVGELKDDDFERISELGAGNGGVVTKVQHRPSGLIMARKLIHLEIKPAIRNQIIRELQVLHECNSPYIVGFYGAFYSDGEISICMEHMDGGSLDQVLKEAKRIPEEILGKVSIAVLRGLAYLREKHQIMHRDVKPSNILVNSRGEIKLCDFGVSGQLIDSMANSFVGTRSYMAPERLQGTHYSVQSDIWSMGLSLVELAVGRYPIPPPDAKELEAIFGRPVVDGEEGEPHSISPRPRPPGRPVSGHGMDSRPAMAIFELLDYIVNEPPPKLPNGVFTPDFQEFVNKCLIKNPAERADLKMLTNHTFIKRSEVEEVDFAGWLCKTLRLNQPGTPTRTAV
Test [6] has as its target Protein kinase C zeta type (Homo sapiens, UniProt Q05513). Type of test: functional.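 Also: measured as one member of a broad kinase profiling panel.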
Test [7] has as its target Serine/threonine-protein kinase Chk2 (Homo sapiens, UniProt O96017). Type of test: functional.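 Also: CHEK2 entry within a kinome-wide screening panel.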
For test [8], the target named is Serine/threonine-protein kinase PAK 1 (Homo sapiens, UniProt Q13153). The format is functional.
Test [9] addresses Tyrosine-protein kinase ITK/TSK (Homo sapiens, UniProt Q08881). Type of test: functional.
Test [10] addresses MAP kinase-activated protein kinase 3 (Homo sapiens, UniProt Q16644). Type of test: functional.
Test [11] addresses Receptor tyrosine-protein kinase erbB-4 (Homo sapiens, UniProt Q15303). The format is functional.
Test [12] has as its target Serine/threonine-protein kinase MRCK alpha (Homo sapiens, UniProt Q5VT25). Type of test: functional.
Test [13] in a line: NIH-3T3 fibroblast cytotoxicity, dose response, cytotoxicity control, cell-based, fluorescence, Alamar Blue, secondary assay (AID 2327).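 Also: NIH-3T3 mouse fibroblasts cultured with fluconazole at 8 µg/mL.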 The format is functional.
In test [14] the test system is Vero. Nature of the test: viability of Vero cells under compound – cytotoxicity control for flavivirus capping enzyme inhibitors (AID 588742). The settings on record: Chlorocebus sabaeus. The format is functional.
Test [15] has as its target T1, Protein RecA (Mycobacterium tuberculosis, UniProt P9WHJ3).
T1 sequence (P9WHJ3 whole entry): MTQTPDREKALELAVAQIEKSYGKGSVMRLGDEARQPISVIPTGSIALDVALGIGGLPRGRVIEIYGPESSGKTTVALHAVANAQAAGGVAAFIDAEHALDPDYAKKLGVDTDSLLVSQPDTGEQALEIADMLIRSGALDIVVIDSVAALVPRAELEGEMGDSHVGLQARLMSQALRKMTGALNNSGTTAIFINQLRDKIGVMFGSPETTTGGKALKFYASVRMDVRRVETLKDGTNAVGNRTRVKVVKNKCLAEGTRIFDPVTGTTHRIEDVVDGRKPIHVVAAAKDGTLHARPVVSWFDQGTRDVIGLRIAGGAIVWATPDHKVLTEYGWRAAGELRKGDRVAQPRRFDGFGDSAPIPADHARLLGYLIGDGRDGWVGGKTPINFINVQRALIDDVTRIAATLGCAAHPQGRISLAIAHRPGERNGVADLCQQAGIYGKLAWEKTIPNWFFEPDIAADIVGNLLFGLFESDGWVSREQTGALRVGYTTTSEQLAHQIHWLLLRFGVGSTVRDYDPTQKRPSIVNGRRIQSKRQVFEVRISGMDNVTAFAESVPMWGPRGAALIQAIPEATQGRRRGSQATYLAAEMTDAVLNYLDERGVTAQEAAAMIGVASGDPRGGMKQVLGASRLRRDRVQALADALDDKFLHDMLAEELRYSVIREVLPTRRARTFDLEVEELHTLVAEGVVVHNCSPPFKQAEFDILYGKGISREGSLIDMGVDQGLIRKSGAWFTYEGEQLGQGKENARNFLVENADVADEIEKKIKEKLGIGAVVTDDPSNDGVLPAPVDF
Description: Fluorescence Cell-Free Homogeneous Dose Retest to Identify Inhibitors of RecA-Intein Splicing Activity. [Related pubchem assays (depositor defined):AID2097, AID2223, AID489010, AID492950]. Type of test: functional.

Test [16] addresses Cysteine protease ATG4B (Homo sapiens, UniProt Q9Y4P1). Type of test: functional.
Test [17] deals with 1-phosphatidylinositol 4,5-bisphosphate phosphodiesterase gamma-1 (Homo sapiens, UniProt P19174). Nature of the test: Counterscreen for inhibitors of phospholipase C isozymes (PLC-B3): Fluorescence-based biochemical high throughput dose response assay to identify inhibitors of phospholipase C isozymes (PLC-gamma1).

Chain of Cyclin-dependent kinase 9 (P50750 whole entry): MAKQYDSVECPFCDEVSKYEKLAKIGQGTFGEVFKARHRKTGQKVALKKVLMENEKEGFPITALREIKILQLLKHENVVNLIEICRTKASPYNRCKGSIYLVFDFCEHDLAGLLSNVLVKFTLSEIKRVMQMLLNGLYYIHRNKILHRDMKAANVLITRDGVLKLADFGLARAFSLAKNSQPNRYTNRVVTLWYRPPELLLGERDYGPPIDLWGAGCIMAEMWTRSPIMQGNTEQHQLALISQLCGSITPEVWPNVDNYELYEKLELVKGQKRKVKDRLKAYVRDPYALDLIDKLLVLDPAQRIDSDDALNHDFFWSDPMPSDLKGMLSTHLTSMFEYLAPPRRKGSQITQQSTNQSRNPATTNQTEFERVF
Chain of Receptor tyrosine-protein kinase erbB-4 (Q15303 whole entry): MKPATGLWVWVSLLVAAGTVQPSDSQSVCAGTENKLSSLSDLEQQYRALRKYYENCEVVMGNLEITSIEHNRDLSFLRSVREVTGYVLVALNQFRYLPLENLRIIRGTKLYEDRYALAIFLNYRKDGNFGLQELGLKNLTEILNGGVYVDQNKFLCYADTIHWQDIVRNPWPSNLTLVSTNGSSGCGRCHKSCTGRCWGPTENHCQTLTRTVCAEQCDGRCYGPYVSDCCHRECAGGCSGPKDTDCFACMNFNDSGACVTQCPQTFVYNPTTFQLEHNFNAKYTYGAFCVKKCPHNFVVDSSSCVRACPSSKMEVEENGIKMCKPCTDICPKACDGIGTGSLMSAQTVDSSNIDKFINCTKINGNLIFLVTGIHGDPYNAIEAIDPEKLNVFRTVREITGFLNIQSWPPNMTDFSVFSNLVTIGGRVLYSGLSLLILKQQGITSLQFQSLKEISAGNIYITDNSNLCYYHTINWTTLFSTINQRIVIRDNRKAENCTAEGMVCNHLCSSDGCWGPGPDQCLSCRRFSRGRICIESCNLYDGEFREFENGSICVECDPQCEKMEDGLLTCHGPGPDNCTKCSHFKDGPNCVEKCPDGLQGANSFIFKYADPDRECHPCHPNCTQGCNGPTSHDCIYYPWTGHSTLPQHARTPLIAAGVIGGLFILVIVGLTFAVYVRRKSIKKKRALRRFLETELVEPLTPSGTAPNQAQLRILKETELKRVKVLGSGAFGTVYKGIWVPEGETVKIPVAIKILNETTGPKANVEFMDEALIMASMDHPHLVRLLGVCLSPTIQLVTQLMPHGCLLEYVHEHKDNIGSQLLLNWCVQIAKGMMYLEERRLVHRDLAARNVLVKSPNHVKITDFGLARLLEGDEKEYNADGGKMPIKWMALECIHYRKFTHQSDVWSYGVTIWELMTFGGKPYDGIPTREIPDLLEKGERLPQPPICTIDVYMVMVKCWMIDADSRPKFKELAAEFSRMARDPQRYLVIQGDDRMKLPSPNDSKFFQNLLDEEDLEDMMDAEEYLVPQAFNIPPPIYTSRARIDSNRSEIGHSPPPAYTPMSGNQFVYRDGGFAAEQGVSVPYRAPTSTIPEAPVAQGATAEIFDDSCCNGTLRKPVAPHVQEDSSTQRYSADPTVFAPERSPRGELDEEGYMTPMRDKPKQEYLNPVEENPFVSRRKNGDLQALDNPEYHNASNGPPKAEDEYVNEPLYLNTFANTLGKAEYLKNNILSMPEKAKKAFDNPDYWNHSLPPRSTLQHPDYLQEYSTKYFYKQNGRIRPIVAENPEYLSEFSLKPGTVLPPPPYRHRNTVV
Chain of Protein kinase C zeta type (Q05513 whole entry): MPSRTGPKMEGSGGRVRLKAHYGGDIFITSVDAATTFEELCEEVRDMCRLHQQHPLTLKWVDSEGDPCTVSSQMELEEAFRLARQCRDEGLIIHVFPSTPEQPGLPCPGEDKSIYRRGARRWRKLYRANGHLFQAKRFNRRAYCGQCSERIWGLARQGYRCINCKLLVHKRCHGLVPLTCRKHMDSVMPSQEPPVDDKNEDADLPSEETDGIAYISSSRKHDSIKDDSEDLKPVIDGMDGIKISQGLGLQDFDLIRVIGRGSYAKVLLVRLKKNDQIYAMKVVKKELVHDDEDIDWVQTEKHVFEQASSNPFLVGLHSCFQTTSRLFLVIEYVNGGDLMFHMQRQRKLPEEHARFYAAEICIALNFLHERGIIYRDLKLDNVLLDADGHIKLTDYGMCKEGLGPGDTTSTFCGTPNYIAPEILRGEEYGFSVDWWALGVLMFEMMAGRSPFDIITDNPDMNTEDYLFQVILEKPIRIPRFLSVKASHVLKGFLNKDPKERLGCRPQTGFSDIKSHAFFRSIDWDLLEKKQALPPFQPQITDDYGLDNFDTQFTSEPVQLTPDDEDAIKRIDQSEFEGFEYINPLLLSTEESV
Chain of Tyrosine-protein kinase ITK/TSK (Q08881 whole entry): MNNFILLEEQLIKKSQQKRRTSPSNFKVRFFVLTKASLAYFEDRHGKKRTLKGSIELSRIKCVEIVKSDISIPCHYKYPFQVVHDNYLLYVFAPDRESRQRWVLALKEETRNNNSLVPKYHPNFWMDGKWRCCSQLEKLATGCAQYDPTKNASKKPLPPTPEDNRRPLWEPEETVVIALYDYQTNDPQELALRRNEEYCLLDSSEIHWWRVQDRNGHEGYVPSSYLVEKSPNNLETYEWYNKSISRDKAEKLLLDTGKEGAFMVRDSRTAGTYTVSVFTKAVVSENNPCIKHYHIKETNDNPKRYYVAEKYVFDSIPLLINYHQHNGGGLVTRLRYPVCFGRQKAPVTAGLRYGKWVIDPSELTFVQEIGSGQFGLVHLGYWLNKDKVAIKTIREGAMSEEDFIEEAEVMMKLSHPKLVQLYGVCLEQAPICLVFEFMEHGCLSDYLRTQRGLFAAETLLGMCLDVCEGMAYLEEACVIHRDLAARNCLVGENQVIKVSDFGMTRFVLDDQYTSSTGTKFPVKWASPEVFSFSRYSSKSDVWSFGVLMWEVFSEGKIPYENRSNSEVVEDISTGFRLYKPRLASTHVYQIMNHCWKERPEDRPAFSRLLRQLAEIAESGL
Chain of MAP kinase-activated protein kinase 3 (Q16644 whole entry): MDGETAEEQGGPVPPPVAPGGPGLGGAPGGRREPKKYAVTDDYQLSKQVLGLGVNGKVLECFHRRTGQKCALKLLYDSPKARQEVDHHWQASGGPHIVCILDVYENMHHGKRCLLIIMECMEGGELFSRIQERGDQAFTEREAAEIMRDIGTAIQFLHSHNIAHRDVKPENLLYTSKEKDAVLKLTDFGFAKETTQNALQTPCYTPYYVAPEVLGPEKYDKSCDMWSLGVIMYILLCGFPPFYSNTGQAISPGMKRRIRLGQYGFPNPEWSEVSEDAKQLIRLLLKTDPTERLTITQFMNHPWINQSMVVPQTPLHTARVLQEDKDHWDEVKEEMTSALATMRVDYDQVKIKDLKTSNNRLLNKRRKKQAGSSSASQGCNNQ

Turning to `Cc1cc(=O)[nH]nc1-c1ccc(NC(=O)Nc2cc(C(F)(F)F)ccc2F)c(Cl)c1`, the Ki in test [1] is > 6.31 µM (inactive); in test [2], > 2.51 µM (inactive); in [3] it was 0.158 µM (active); in test [4], > 1.58 µM (inactive); in [5], > 3.98 µM (inactive).

With `CCOC(=O)c1cn(-c2ccc(O)cc2C)c2cc(-c3ccncc3)ccc2c1=O`, the Ki in test [6] is > 7.94 µM (inactive); in [7], > 10 µM (inactive); in test [8], > 10 µM (inactive); in test [9], > 1.58 µM (inactive); in test [10], > 10 µM (inactive); in test [11], > 3.98 µM (inactive). Besides, the Ki in test [12] was 0.251 µM (active).

Turning to `O=C1C=C(NCc2ccccc2)c2ccccc2C1=O`, the EC50 in test [13] is 2.61 µM (inconclusive); in test [15], 0.774 µM (active). Besides, the 50% cytotoxic concentration (CC50) in test [14] was 19.1 µM (active).

`O=C(O)c1[nH]c2ccccc2c1C(c1cc(Cl)cc([N+](=O)[O-])c1O)c1c(C(=O)O)[nH]c2ccccc12`: the values for the half-inhibitory concentration (IC50) in [16] and in test [17] were 3.46 µM (active) and 26.6 µM (inactive), respectively.

The record behind these values is ChEMBL document CHEMBL1201862, “PubChem BioAssay data set” (2004).
